Measured values reported in ChEMBL document CHEMBL1144301, “Non-peptidic small molecule inhibitors of XIAP” (Bioorg Med Chem Lett, 2005).

Molecular target: E3 ubiquitin-protein ligase XIAP (Homo sapiens, UniProt P98170)
Assay: Dissociation constant against BIR3 domain of X-linked IAP in fluorescence polarization anisotropy competition assay

Sequence of E3 ubiquitin-protein ligase XIAP (P98170 whole entry, the tested form may be a part): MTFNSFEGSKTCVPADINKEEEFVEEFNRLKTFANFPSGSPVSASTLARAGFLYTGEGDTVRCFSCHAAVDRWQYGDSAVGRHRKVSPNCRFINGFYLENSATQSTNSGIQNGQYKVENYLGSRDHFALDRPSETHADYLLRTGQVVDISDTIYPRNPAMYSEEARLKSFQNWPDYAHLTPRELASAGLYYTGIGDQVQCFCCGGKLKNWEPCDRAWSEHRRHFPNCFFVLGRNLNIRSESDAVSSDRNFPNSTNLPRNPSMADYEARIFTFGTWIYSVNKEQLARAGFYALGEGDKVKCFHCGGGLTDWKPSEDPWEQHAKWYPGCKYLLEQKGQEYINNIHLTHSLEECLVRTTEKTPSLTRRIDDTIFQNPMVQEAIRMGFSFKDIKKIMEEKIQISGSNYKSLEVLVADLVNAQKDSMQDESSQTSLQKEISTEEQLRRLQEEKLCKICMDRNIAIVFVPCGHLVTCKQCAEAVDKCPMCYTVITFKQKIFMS

Kd: > 100 µM
SMILES: C[C@H](N)C(=O)Nc1nc(-c2cccc(Cc3ccccc3)c2)c(Cc2ccccc2)s1
